Laboratory results reported in patent US20160243190A1, “DOSES AND METHODS FOR ADM[…]” (THERAVANCE BIOPHARMA A[…], LLC, priority 2015, published 2016).
Read-outs that look alike come from different tables or passages of the source.

Key:
[1] = CART (classification and regression tree) analysis of exposure and 28-day mortality; type: in vivo, human; settings: HABP/VABP subjects with renal impairment
Protocol: Values were determined for each simulated clinical trial (n=100), and presented as a mean and standard deviation.
The logistic regression analysis in HABP/VABP subjects with impaired renal function (CrCl≦50 mL/min) is consistent with the results of the CART analysis in HABP/VABP subjects with renal impairment.

[2] = Individually predicted steady state exposure in Phase 3 subjects with PK samples; type: in vivo; settings: human, plasma, intravenous
Protocol: This analysis was designed to describe the relationship between exposure and response in patients treated with telavancin.
The predicted telavancin PK profiles for each subject were generated using the individually estimated PK parameters determined during the population PK analysis based on the administered dose as recorded in the dataset. The individually estimated PK parameters for each subject were determined based upon the specific intra- and inter-individual errors determined using nonlinear mixed effect analysis.

[3] = Population PK model for telavancin from Phase 1, 2 and 3 plasma concentrations; type: in vivo; settings: both sexes, human, intravenous, final combined population PK model, read-out: CL, population estimate ± SE (converted)
[4] = Logistic regression of outcomes as a function of steady state exposure (AUC0-24h) in Phase 3 subjects; type: in vivo, human
Protocol: Logistic regression analysis was used to parameterize the relationship between exposure (AUC0-24h) and the probability of 28-day all-cause mortality, AKI (defined as a 50% increase or greater than 0.5 mg/dL increase in serum creatinine) and clinical response at test of cure (TOC) for all Phase 3 subjects. The analysis was repeated for the individual HABP/VABP and cSSSI subpopulations.
Logistic regression analyses were conducted on the Phase 3 dataset using individually predicted exposure (AUC0-24h) and the outcomes of interest (28-day all-cause mortality, AKI, and clinical response at TOC). The analysis was performed using the generalized linear model function in R specifying a binomial variance and the logit link function.
The output produced for each logistic regression analysis includes indices of fit (i.e., null and deviance residuals, Akaike's information criterion and likelihood ratio test statistics to provide an assessment of model improvement as additional parameters are included in the model).

[5] = Observed outcomes in Phase 3 HABP/VABP and cSSSI studies 0015, 0017, 0018, 0019; type: in vivo, human
From the text: The data for the simulations was based on 1771 subjects from Studies 0015, 0017, 0018 and 0019.
The data for the analysis was based upon 579 subjects from Studies 0015, 0017, 0018 and 0019. […]

[6] = Phase 3 HABP/VABP subjects with PK samples, n=196
[7] = Phase 3 Total with PK samples, n=579
[8] = Phase 3 all-treated HABP/VABP subjects, n=750
[9] = Phase 3 all-treated Total, n=1771
[10] = Phase 3 all-treated cSSSI subjects, n=1021
[11] = Phase 3 cSSSI subjects with PK samples, n=383

With `CCCCCCCCCCNCCNC1(C)CC(OC2C(Oc3c4cc5cc3Oc3ccc(cc3Cl)[C@@H](O)[C@@H](NC(=O)[C@@H](CC(C)C)NC)C(=O)N[C@@H](CC(N)=O)C(=O)N[C@H]5C(=O)N[C@H]3C(=O)N[C@H](C(=O)N[C@H](C(=O)O)c5cc(O)c(CNCP(=O)(O)O)c(O)c5-c5cc3ccc5O)[C@H](O)c3ccc(c(Cl)c3)O4)OC(CO)C(O)C2O)OC(C)C1O` (stereo partly shown) [telavancin, N^3″-[2-(decylamino)ethyl]-29-[[(phosphonomethyl)amino]methyl]vancomycin] the “predicted exposure with greater likelihood of 28-day mortality (CART cutpoint)” value [1] was “greater than 767 μg·hr/mL”, the AUC0-24 at steady state ([2]; HABP/VABP subjects, n=196, read-out: AUC0-24, mean ± SD (range)) was 670 ± 231 µg·h/mL and the AUC0-24 at steady state ([2]; Total, n=579, read-out: AUC0-24, mean ± SD (range)) was 671 ± 214 µg·h/mL. The AUC0-24 at steady state ([2]; cSSSI subjects, n=383, read-out: AUC0-24, mean ± SD (range)) was 671 ± 206 µg·h/mL, the clearance [3] was 19.2 mL/min and the “Steady State AUC0-24 h coefficient, Estimate; clinical response at TOC” value ([4]; all HABP/VABP subjects) was 4.50e−4. For the same molecule, the “Steady State AUC0-24 h coefficient, Pr(>|z|); clinical response at TOC” value ([4]; all HABP/VABP subjects) was 0.495, the “Steady State AUC0-24 h coefficient, Estimate; clinical response at TOC” value ([4]; all Phase 3 subjects) was 4.29e−3 and the “Steady State AUC0-24 h coefficient, Pr(>|z|); clinical response at TOC” value ([4]; all Phase 3 subjects) was 0.368. For the same molecule, the “Steady State AUC0-24 h coefficient, Estimate; clinical response at TOC” value ([4]; all cSSSI subjects) was 4.11e−4, the “Steady State AUC0-24 h coefficient, Pr(>|z|); clinical response at TOC” value ([4]; all cSSSI subjects) was 0.557 and the “AKI, Y (number of subjects)” value [5, 6] was “Y = 39, N = 157”. The “CURE (number of subjects)” value [5, 6] was “CURE = 127,”, the “MORTALITY, Y (number of subjects)” value [5, 6] was “Y = 45, N = 151” and the “AKI, Y (number of subjects)” value [5, 7] was “Y = 78, N = 500,”. The “CURE (number of subjects)” value [5, 7] was “CURE = 449,”, the “MORTALITY, Y (number of subjects)” value [5, 7] was “Y = 46, N = 533” and the “AKI, Y (number of subjects)” value [5, 8] was “Y = 171, N = 542,”. The “CURE (number of subjects)” value [5, 8] was “CURE = 442,”, the “MORTALITY, Y (number of subjects)” value [5, 8] was “Y = 178, N = 572,” and the “AKI, Y (number of subjects)” value [5, 9] was “Y = 291, N = 1413,”. The “CURE (number of subjects)” value [5, 9] was “CURE = 1230,”, the “MORTALITY, Y (number of subjects)” value [5, 9] was “Y = 187, N = 1584” and the “AKI, Y (number of subjects)” value [5, 10] was “Y = 120, N = 871,”. The “CURE (number of subjects)” value [5, 10] was “CURE = 788,”, the “MORTALITY, Y (number of subjects)” value [5, 10] was “Y = 9, N = 1012,” and the “AKI, Y (number of subjects)” value [5, 11] was “Y = 39, N = 343,”. For the same molecule, the “CURE (number of subjects)” value [5, 11] was “CURE = 322,”.
